Experimental data taken from patent US20070167631A1, “Novel herbicides” (priority 2003, published 2007).

Key:
Wheat [1] = experiment: Comparison test with prior art compound B, post-emergence herbicidal action (Example B5); format: in vivo; details: 125 g/ha
Text: (§1) The post-emergence herbicidal action of compound no. 1.096 according to the invention was compared with compound B, which is described as compound no. 2.088 on page 83,

Galium [2] = experiment: as above; format: in vivo; details: 125 g/ha, rating scale 10=total damage, 0=no action
Text: as §1

Ipomea [3] = experiment: as above; format: in vivo; details: 125 g/ha, rating scale 10=total damage, 0=no action
Text: as §1

Polygonum = experiment: as above; format: in vivo; details: 125 g/ha, rating scale 10=total damage, 0=no action
Text: as §1

Maize [4] = experiment: as above; format: in vivo; details: 125 g/ha
Text: as §1

Stellaria [5] = experiment: as above; format: in vivo; details: 125 g/ha, rating scale 10=total damage, 0=no action
Text: as §1

Solanum = experiment: Microscreen, post-emergence herbicidal action (Example B3); format: in vivo; details: 250 g/ha, evaluated after 9 or 13 days, scale of eleven ratings (10=total damage, 0=no action)
Method: (§2) Example B3 Microscreen, Post-Emergence Herbicidal Action Monocotyledonous and dicotyledonous test plants are sown in sterilised standard soil in seed trays each having 96 cells. […] The plants are grown on in the climatic chamber until the test is evaluated after 9 or 13 days. The test is evaluated in accordance with a scale of eleven ratings (10=total damage, 0=no action). Ratings of from 10 to 7 (especially from 10 to 8) indicate very good to good herbicidal action.

Amaranthus [6] = experiment: as above; format: in vivo; details: 250 g/ha, evaluated after 9 or 13 days, scale of eleven ratings (10=total damage, 0=no action)
Method: as §2

Nasturtium = experiment: as above; format: in vivo; details: 250 g/ha, evaluated after 9 or 13 days, scale of eleven ratings (10=total damage, 0=no action)
Method: as §2

Digitaria [7] = experiment: as above; format: in vivo; details: 250 g/ha, evaluated after 9 or 13 days, scale of eleven ratings (10=total damage, 0=no action)
Method: (§3) Example B3 Microscreen, Post-Emergence Herbicidal Action Monocotyledonous and dicotyledonous test plants are sown in sterilised standard soil in seed trays each having 96 cells. After 8 to 9 days' cultivation under controlled conditions in a climatic chamber (cultivation at 17/23° C.; 13 hours' light; 50-60% humidity; after application at 19/24° C.), the plants are treated with an aqueous spray solution of 1000 mg/l of the active ingredient used ([…]; incl. 10% DMSO as solvent). The plants are grown on in the climatic chamber until the test is evaluated after 9 or 13 days. The test is evaluated in accordance with a scale of eleven ratings (10=total damage, 0=no action). Ratings of from 10 to 7 (especially from 10 to 8) indicate very good to good herbicidal action.

Stellaria [8] = experiment: as above; format: in vivo; details: 250 g/ha, evaluated after 9 or 13 days, scale of eleven ratings (10=total damage, 0=no action)
Method: as §3

Bromus = experiment: Comparison test with prior art compound B, post-emergence herbicidal action (Example B5); format: in vivo; details: 125 g/ha, rating scale 10=total damage, 0=no action
Text: as §1

Sida [9] = experiment: as above; format: in vivo; details: 125 g/ha, rating scale 10=total damage, 0=no action
Text: as §1

Wheat [10] = experiment: Comparison test with prior art compound A, post-emergence herbicidal action (Example B4); format: in vivo; details: 125 g/ha, crop plant, rating scale 10=total damage, 0=no action
Text: (§4) The post-emergence herbicidal action of compound no. 1.095 according to the invention was compared with compound A, which is described as compound no.

Galium [11] = experiment: as above; format: in vivo; details: 125 g/ha, rating scale 10=total damage, 0=no action
Text: as §4

Ipomea [12] = experiment: as above; format: in vivo; details: 125 g/ha, rating scale 10=total damage, 0=no action
Text: as §4

Sida [13] = experiment: as above; format: in vivo; details: 125 g/ha, rating scale 10=total damage, 0=no action
Text: as §4

Maize [14] = experiment: as above; format: in vivo; details: 125 g/ha, crop plant, rating scale 10=total damage, 0=no action
Text: as §4

Amaranthus [15] = experiment: as above; format: in vivo; details: 125 g/ha, rating scale 10=total damage, 0=no action
Text: as §4

Stellaria [16] = experiment: as above; format: in vivo; details: 125 g/ha, rating scale 10=total damage, 0=no action
Text: as §4

Sinapis = experiment: as above; format: in vivo; details: 125 g/ha, rating scale 10=total damage, 0=no action
Text: as §4

Scirpus = experiment: Pre-emergence herbicidal action (Example B1); format: in vivo; details: 250 g/ha, after 4 weeks, rating scale 10=total damage, 0=no action
Method: (§5) Monocotyledonous and dicotyledonous test plants are sown in standard soil in pots or seed trays. Immediately after sowing, the test compounds, in the form of an aqueous suspension (prepared from a wettable powder (Example F3, b) according to WO 97/34485) or in the form of an emulsion (prepared from an emulsifiable concentrate (Example F1, c) according to WO 97/34485), are applied by spraying in a concentration of 250 g/ha. The test plants are then grown in a greenhouse under optimum conditions. After a test duration of 4 weeks, the test is evaluated in accordance with a scale of eleven ratings (10=total damage, 0=no action). Ratings of from 10 to 7 (especially from 10 to 8) indicate very good to good herbicidal action.

Chenopodium [17] = experiment: Pre-emergence herbicidal action (Example B1); format: in vivo; details: 250 g/ha, after 4 weeks, rating scale 10=total damage, 0=no action
Method: as §5

Digitaria [18] = experiment: Pre-emergence herbicidal action (Example B1); format: in vivo; details: 250 g/ha, after 4 weeks, rating scale 10=total damage, 0=no action
Method: as §5

Panicum [19] = experiment: Pre-emergence herbicidal action (Example B1); format: in vivo; details: 250 g/ha, after 4 weeks, rating scale 10=total damage, 0=no action
Method: as §5

Echinochloa [20] = experiment: Pre-emergence herbicidal action (Example B1); format: in vivo; details: 250 g/ha, after 4 weeks, rating scale 10=total damage, 0=no action
Method: as §5

Amaranthus [21] = experiment: Pre-emergence herbicidal action (Example B1); format: in vivo; details: 250 g/ha, after 4 weeks, rating scale 10=total damage, 0=no action
Method: as §5

Abutilon = experiment: Pre-emergence herbicidal action (Example B1); format: in vivo; details: 250 g/ha, after 4 weeks, rating scale 10=total damage, 0=no action
Method: as §5

Chenopodium [22] = experiment: Post-emergence herbicidal action (Example B2); format: in vivo; details: 250 g/ha, after about 18 days, rating scale 10=total damage, 0=no action
Summary of the method: (§6)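 Test plants are raised in pots of standard soil under glass. At the four- to six-leaf stage they receive a spray of the compound, formulated from a 25% wettable powder or 25% emulsifiable concentrate, at doses of 125 and 250 g/ha. About 18 days later, effect is graded from 0 (none) to 10 (complete damage).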

Panicum [23] = experiment: Post-emergence herbicidal action (Example B2); format: in vivo; details: 250 g/ha, after about 18 days, rating scale 10=total damage, 0=no action
Summary of the method: as §6

Echinochloa [24] = experiment: Post-emergence herbicidal action (Example B2); format: in vivo; details: 250 g/ha, after about 18 days, rating scale 10=total damage, 0=no action
Summary of the method: as §6

Amaranthus [25] = experiment: Post-emergence herbicidal action (Example B2); format: in vivo; details: 250 g/ha, after about 18 days, rating scale 10=total damage, 0=no action
Summary of the method: as §6

Euphorbia = experiment: Post-emergence herbicidal action (Example B2); format: in vivo; details: 250 g/ha, after about 18 days, rating scale 10=total damage, 0=no action
Summary of the method: as §6

Stellaria [26] = experiment: Post-emergence herbicidal action (Example B2); format: in vivo; details: 250 g/ha, after about 18 days, rating scale 10=total damage, 0=no action
Summary of the method: as §6

Xanthium = experiment: Post-emergence herbicidal action (Example B2); format: in vivo; details: 250 g/ha, after about 18 days, rating scale 10=total damage, 0=no action
Summary of the method: as §6

[27] = crop plant, rating scale 10=total damage, 0=no action

| Compound | Post-emergence herbicidal action: Galium (Galium [2]) | Post-emergence herbicidal action: Ipomea (Ipomea [3]) | Post-emergence herbicidal action: Polygonum (Polygonum) | Post-emergence herbicidal action: Stellaria (Stellaria [5]) | Solanum, herbicidal action rating (Solanum) | Amaranthus, herbicidal action rating (Amaranthus [6]) | Nasturtium, herbicidal action rating (Nasturtium) | Digitaria, herbicidal action rating (Digitaria [7]) | Stellaria, herbicidal action rating (Stellaria [8]) | Post-emergence herbicidal action: Wheat (Wheat [10]) | Post-emergence herbicidal action: Sida (Sida [13]) | Post-emergence herbicidal action: Maize (Maize [14]) | Post-emergence herbicidal action: Stellaria (Stellaria [16]) | Post-emergence herbicidal action: Sinapis (Sinapis) | further results |
| --- | --- | --- | --- | --- | --- | --- | --- | --- | --- | --- | --- | --- | --- | --- | --- |
| COc1nc(C(=O)C2=C(O)C3CCC(C3)C2=O)ccc1C(F)(F)F (stereo not shown) [B, reference compound] | 4 | 6 | 4 | 6 | – | – | – | – | – | – | – | – | – | – | Post-emergence herbicidal action: Wheat (Wheat [1]; [27]): 2; phytotoxicity to wheat (Wheat [1]; post-emergence): 20%; Post-emergence herbicidal action: Maize (Maize [4]; [27]): 2; phytotoxicity to maize (Maize [4]; post-emergence): 20% |
| COc1nc(C(=O)C2=C(O)CCCC2=O)ccc1C(F)(F)F [Compound 1.096] | 8 | 7 | 8 | 8 | 9 | 9 | 10 | 8 | 9 | – | – | – | – | – | melting point: 80 to 81 °C; Post-emergence herbicidal action: Bromus (Bromus): 5; Post-emergence herbicidal action: Sida (Sida [9]): 7 |
| O=C1CCCC(O)=C1C(=O)c1ccc(C(F)(F)F)c(Cl)n1 [Compound 1.095] | – | – | – | – | 7 | 7 | 9 | 3 | 7 | 0 | 5 | 0 | 8 | 7 | Post-emergence herbicidal action: Galium (Galium [11]): 6; Post-emergence herbicidal action: Ipomea (Ipomea [12]): 7; Post-emergence herbicidal action: Amaranthus (Amaranthus [15]): 7 |
| O=C1CCCC(O)=C1C(=O)c1ncc(C(F)(F)F)cc1Cl [A, reference compound] | – | – | – | – | – | – | – | – | – | 0 | 2 | 0 | 9 | 6 | – |
| O=C1CCCC(O)=C1C(=O)c1ccc(C(F)(F)F)c(N2CCSCC2)n1 [Compound 1.079] | – | – | – | – | – | – | – | – | – | – | – | – | – | – | Pre-emergence action: Scirpus (Scirpus): 4; Pre-emergence action: Chenopodium (Chenopodium [17]): 9; Pre-emergence action: Digitaria (Digitaria [18]): 10; Pre-emergence action: Panicum (Panicum [19]): 10; Pre-emergence action: Echinochloa (Echinochloa [20]): 10; Pre-emergence action: Amaranthus (Amaranthus [21]): 10; Pre-emergence action: Abutilon (Abutilon): 10; Post-emergence action: Chenopodium (Chenopodium [22]): 10; Post-emergence action: Panicum (Panicum [23]): 3; Post-emergence action: Echinochloa (Echinochloa [24]): 7; Post-emergence action: Amaranthus (Amaranthus [25]): 8; Post-emergence action: Euphorbia (Euphorbia): 8; Post-emergence action: Stellaria (Stellaria [26]): 10; Post-emergence action: Xanthium (Xanthium): 7 |
